Experimental data as given in paper PMC12561670, “Isolation of Dual-Active Drugs with Anticancer and Antibacterial Activities That Target Both Tubulin and FtsZ” (Antibiotics, 2025).
Values after ≈ are worked out from the molar mass of the structure shown. Counter-ions that a name gives are not always drawn. Like-named read-outs stand apart in the source and are kept apart here.

Assays:
B. subtilis (CICC 21164) = test: MIC, broth microdilution; format: cell-based; conditions: Bacillus subtilis, 18 h, read-out: MIC B. subtilis (CICC 21164)
Protocol: MIC assays were carried out by employing the broth microdilution method in accordance with Clinical and Laboratory Standards Institute (CLSI) guidelines. E. coli BNCC337004, S. aureus BNCC336423, P. aeruginosa BNCC337099, and B. subtilis CICC 21164 were applied for the MIC detection. Mueller–Hinton broth (MHB) was used in bacterial culture, and log-phase bacteria were diluted into a 0.5 McFarland Standard suspension, which was then diluted 1000 times again. Subsequently, 100 μL of the obtained bacterial suspension was placed into each well of 96-well microtiter plates, along with 2-fold serial dilutions of compounds (512, 256, 128, 64, 32, 16, 8, 4, 2, 1, 0.5, 0 μM). The microtiter plates were incubated aerobically for 18 h at 37 °C. The MIC was defined as the lowest drug concentration at which no visible turbidity was observed. All experiments are conducted in three parallel.

bovine brain tubulin = test: Inhibition of tubulin polymerization; format: biochemical; conditions: 10 μM bovine brain tubulin, 20 min; read-out: IC50 ± SD Tubulin (inhibition of tubulin polymerization)
Protocol: Compounds with a certain concentration were pre-incubated with 10 μM bovine brain tubulin in glutamate buffer at 30 °C, and then cooled to 0 °C. The absorbance of 350 nm was immediately measured at 30 °C, as soon as the addition of 0.4 mM GTP. The absorbance would be detected continuously for 20 min. The IC50 was defined as the compound concentration that inhibited tubulin polymerization by 50% during 20 min.

Cytotoxicity, CCK8 = format: cell-based; conditions: human
Protocol: The absorbance of 450 nm was measured in an ELISA reader (BioTek-Synergy 4, USA). Then, cell viability was calculated, and the corresponding images were drawn with GraphPad Prism 9.

P. aeruginosa (DSM 939) = test: MIC, broth microdilution; format: cell-based; conditions: Pseudomonas aeruginosa, read-out: MIC P. aeruginosa (DSM 939)
S. aureus (ATCC 6538) = test: MIC, broth microdilution; format: cell-based; conditions: Staphylococcus aureus, read-out: MIC S. aureus (ATCC 6538)
S. aureus FtsZ = biological target: T1, S. aureus FtsZ (Staphylococcus aureus, UniProt P0A031); test: FtsZ polymerization assay (A340); format: biochemical; conditions: 50 μM compound, 5 µM FtsZ, 4 mM GTP, vs DMSO
T1 construct: His tag; made in house; host or cells: E. coli BL21(DE3)
T1 sequence (P0A031 1-390): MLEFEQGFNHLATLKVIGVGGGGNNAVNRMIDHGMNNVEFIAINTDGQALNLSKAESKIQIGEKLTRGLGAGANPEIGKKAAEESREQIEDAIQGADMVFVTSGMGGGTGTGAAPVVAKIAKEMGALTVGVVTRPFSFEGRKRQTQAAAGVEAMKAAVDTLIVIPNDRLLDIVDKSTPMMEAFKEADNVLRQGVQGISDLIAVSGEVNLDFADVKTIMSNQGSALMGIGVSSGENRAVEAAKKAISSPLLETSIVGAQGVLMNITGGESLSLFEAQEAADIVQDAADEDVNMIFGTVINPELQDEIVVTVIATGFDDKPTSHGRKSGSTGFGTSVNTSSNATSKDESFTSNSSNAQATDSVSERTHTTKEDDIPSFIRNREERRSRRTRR
Protocol: The effect of compounds on S. aureus FtsZ polymerization was monitored by employing a microtiter plate-based spectrophotometric assay method, and the reactions were conducted in flat-bottomed 96-well microtiter plates. The degree of FtsZ polymerization was reflected by the corresponding changes in absorbance at 340 nm (A340). […] The polymerization reaction began immediately once 4 mM GTP was added, and then the polymerization was continuously monitored at 25 °C for 60 min by measuring A340 in BioTek-Synergy4 multifunctional enzyme-linked immunosorbent assay (ELISA) reader.

FtsZ = biological target: T2, FtsZ (Staphylococcus aureus, UniProt P0A031); test: Sedimentation assay of FtsZ polymerization; format: biochemical; conditions: 50 μM compound, 5 μM FtsZ, 37 °C 30 min
T2 construct: His tag; made in house; host or cells: E. coli BL21(DE3)
T2 sequence (P0A031 1-390): T1 sequence (P0A031 1-390)
Protocol: Sedimentation assay was also conducted for the influence of compounds on FtsZ polymerization. FtsZ (5 μM) was polymerized in a buffer containing 25 mM Pipes buffer (pH 6.8) and 3 mM MgSO4 in the […] of DMSO or compounds (50 μM). After the addition of 4 mM GTP, the sample was instantly placed at 37 °C for 30 min. Then, the polymers were collected by centrifuging for 30 min at 25 °C. The protein concentration in the supernatant was determined using the Bradford quantification method, with bovine serum albumin (BSA) as the standard. The experiment was performed in triplicate, and the average absorbance is shown.

E. coli (ATCC 8739) = test: MIC, broth microdilution; format: cell-based; conditions: Escherichia coli, read-out: MIC E. coli (ATCC 8739)
B. subtilis = test: Phase-contrast microscopy, cell division inhibition; format: cell-based; conditions: 64 μM, 4 h
Protocol: Cell Division Inhibitory Screening Assay Cell division inhibitory activity of compounds was conducted as below. […] Afterwards, 1 mL of the sample was centrifuged at 15,000× g for 3 min at room temperature, and the bacterial pellets were washed with 1 mL of PBS before re-centrifugation. The final bacterial pellets obtained were resuspended in 5 mL PBS. 20 μL of bacterial suspension was transferred to slides for microscopy. Cell morphology was estimated by using the phase-contrast method of Olympus IX71 microscopy (Olympus Corporation, Tokyo, Japan) with 400× magnification.

E. coli = test: In vivo antibacterial activity, mouse peritoneal infection; parameters: species or system CD-1 male mice
From the text: SPF grade CD-1 male mice weighing 30 ± 3 g were purchased from Shanghai Slake Experimental Animal Co., Ltd. (Shanghai, China). […] Immediately following this, the mice were intraperitoneally injected with the test compounds. Each experimental group consisted of five mice, with each compound being tested at two distinct concentration gradients (determined based on the minimum inhibitory concentration, MIC). A separate group received physiological saline as a negative control. The subsequent assessment focused on evaluating the therapeutic potential of these drugs against bacterial infections. On the first and third days post-administration, 2 mL of sterile physiological saline was injected into the peritoneal cavity of each mouse. After a gentle two-minute dilution under sterile conditions, the abdominal fluid was extracted for bacterial enumeration using the plate counting method. Furthermore, the clinical manifestations of each mouse group, encompassing mental status, appetite, and other relevant parameters, were meticulously observed over a seven-day period. On the seventh day, the mice were euthanized, and a thorough macroscopic examination was conducted to assess the pathological changes in various vital organs.

S. aureus BNCC336423 = test: Time–killing curve; format: cell-based; conditions: S. aureus BNCC336423, concentrations of 4× the MIC or greater
Protocol: S. aureus BNCC336423 was employed for the time–killing curve study. […] Meanwhile, DMSO with an equivalent volume was added to the vehicle control tube. The cultures were then subjected to shaking incubation at 37 °C. Subsequently, cultures were taken out at predetermined time intervals (0, 1, 2, 4, 6, 8, and 24 h), centrifuged at 16,000×g for 3 min, and diluted to an appropriate multiple. These diluted samples were then plated onto Tryptic Soy Agar (TSA) plates for enumeration. Following a 24 h incubation period at 37 °C, colonies on the TSA plates were counted for the CFU/mL, thereby providing insights into the time-dependent bactericidal activity of the tested compounds.

[1] = 293T cells (renal epithelial cells), read-out: cell viability HT293 (293T)
[2] = LO2 cells (normal hepatic cells), read-out: cell viability LO2
[3] = DSM939, broth microdilution, 18 h, 37 °C
[4] = ATCC6538, broth microdilution, 18 h, 37 °C
[5] = ATCC8739, broth microdilution, 18 h, 37 °C

| MIC (B. subtilis (CICC 21164); broth microdilution, 37 °C) [µM] | MIC (P. aeruginosa (DSM 939); [3]) [µM] | MIC (S. aureus (ATCC 6538); [4]) [µM] | MIC (E. coli (ATCC 8739); [5]) [µM] | Compound | MIC (B. subtilis (CICC 21164)) [µM] | IC50 (bovine brain tubulin) [µM] | viability at 12 h, 100 µM (Cytotoxicity, CCK8; read-out: cell viability HT293 (293T)) [%] | viability at 12 h, 100 µM (Cytotoxicity, CCK8; read-out: cell viability LO2) [%] | MIC (P. aeruginosa (DSM 939); DSM939, 18 h) [µM] | MIC (S. aureus (ATCC 6538); ATCC6538, 18 h) [µM] | effect on FtsZ polymerization (A340) (S. aureus FtsZ) | effect on FtsZ sedimentation (polymerization amount) (FtsZ) | MIC (E. coli (ATCC 8739); ATCC8739, 18 h) [µM] | viability at 12 h, 100 µM (Cytotoxicity, CCK8; [1]) [%] | viability at 12 h, 100 µM (Cytotoxicity, CCK8; [2]) [%] | cell morphology of B. subtilis (elongation) (B. subtilis) | bacterial count of peritoneal fluid (E. coli; mice i.p. E. coli, i.p. compound, days 1 and 3) | clinical presentation of infected mice (E. coli; seven-day observation) | logs of kill in time–kill (S. aureus BNCC336423) [logs] |
| --- | --- | --- | --- | --- | --- | --- | --- | --- | --- | --- | --- | --- | --- | --- | --- | --- | --- | --- | --- |
| – | – | – | – | C[C@]12CC[C@@H]3c4ccc(OC(=O)N(CCCl)CCCl)cc4CC[C@H]3[C@@H]1CC[C@@H]2O [Compound 56, Estramustine] | 64 (≈ 28.2 µg/mL) | 38.66 ± 0.28 | 98 | 99 | 32 (≈ 14.1 µg/mL) | 128 (≈ 56.4 µg/mL) | minimal impact on the dynamics of FtsZ polymerization | negligible effects | 128 (≈ 56.4 µg/mL) | – | – | – | – | – | – |
| 64 (≈ 21.7 µg/mL) | 8 (≈ 2.72 µg/mL) | 8 (≈ 2.72 µg/mL) | 16 (≈ 5.43 µg/mL) | CC(C)CNc1ccnc(NCc2csc(-c3ccccc3)n2)n1 [Compound 60, KHS 101] | – | 5.62 ± 0.12 | – | – | – | – | apparent inhibitory tendencies towards FtsZ polymerization | varying degrees of inhibition on FtsZ polymerization | – | 89 | 90 | – | – | – | – |
| 16 | 32 | 8 | 64 | CC[C@]1(O)C[C@H]2CN(CCc3c([nH]c4ccccc34)[C@@](C(=O)OC)(c3cc4c(cc3OC)N(C=O)[C@H]3[C@@](O)(C(=O)OC)[C@H](OC(C)=O)[C@]5(CC)C=CCN6CC[C@]43[C@@H]65)C2)C1 [Compound 6, Vincristine sulfate] | – | – | – | – | – | – | – | negligible effects | – | – | – | – | – | – | – |
| 64 | 2 | 4 | 32 | CN(C)c1ccc2c(c1)Sc1cc(N(C)C)ccc1N2 [Compound 33, Leucomethylene blue mesylate] | – | 74.46 ± 0.25 | – | – | – | – | minimal impact on the dynamics of FtsZ polymerization | varying degrees of inhibition on FtsZ polymerization | – | 80 | 65 | – | – | – | 3 |

| Compound | MIC (B. subtilis (CICC 21164); broth microdilution, 37 °C) [µM] | MIC (P. aeruginosa (DSM 939); [3]) [µM] | MIC (S. aureus (ATCC 6538); [4]) [µM] | MIC (E. coli (ATCC 8739); [5]) [µM] | MIC (B. subtilis (CICC 21164)) [µM] | IC50 (bovine brain tubulin) [µM] | viability at 12 h, 100 µM (Cytotoxicity, CCK8; read-out: cell viability HT293 (293T)) [%] | viability at 12 h, 100 µM (Cytotoxicity, CCK8; read-out: cell viability LO2) [%] | MIC (P. aeruginosa (DSM 939); DSM939, 18 h) [µM] | MIC (S. aureus (ATCC 6538); ATCC6538, 18 h) [µM] | effect on FtsZ polymerization (A340) (S. aureus FtsZ) | effect on FtsZ sedimentation (polymerization amount) (FtsZ) | MIC (E. coli (ATCC 8739); ATCC8739, 18 h) [µM] | viability at 12 h, 100 µM (Cytotoxicity, CCK8; [1]) [%] | viability at 12 h, 100 µM (Cytotoxicity, CCK8; [2]) [%] | cell morphology of B. subtilis (elongation) (B. subtilis) | bacterial count of peritoneal fluid (E. coli; mice i.p. E. coli, i.p. compound, days 1 and 3) | clinical presentation of infected mice (E. coli; seven-day observation) | logs of kill in time–kill (S. aureus BNCC336423) [logs] |
| --- | --- | --- | --- | --- | --- | --- | --- | --- | --- | --- | --- | --- | --- | --- | --- | --- | --- | --- | --- |
| COc1ccc2cc3[n+](cc2c1OC)CCc1cc2c(cc1-3)OCO2 [Compound 82, Berberine] | 64 | 8 | 4 | 64 | – | – | – | – | – | – | robust inhibitory activity against FtsZ polymerization | varying degrees of inhibition on FtsZ polymerization | – | – | – | varying degrees of elongation | substantially mitigated | exhibited vitality, maintained a healthy appetite | – |
| CN(C)c1ccc2nc3ccc(=[N+](C)C)cc-3sc2c1 [Compound 71, Methylene Blue] | 32 | 64 | 2 | 64 | – | – | – | – | – | – | – | negligible effects | – | – | – | – | – | – | 3 |
